Test results published in patent US10620188B2, “Using impedance-based cell response profiling to identify putative inhibitors for oncogene addicted targets or pathways” (ACEA Biosciences, Inc., priority 2002, dated 2020).
pEC50, pIC50: −log10 of the molar value. Read-outs that look alike come from different tables or passages of the source.

Assays:
[1] = test system: SH-SY5Y; experiment: Impedance-based TCRP of SH-SY5Y cells, mutant ALK (F1174L); type: cell-based, human; conditions: for TCRP (Cell Index response): 10 uM; for pIC50: mutant ALK (F1174L), long-term (72 hours post compound treatment) CI
Excerpt: (§1) The cell index was normalized at time of compound addition.
The cell index (CI) was normalized at time of compound addition. […] DMSO was served as solvent control.
The cell index was normalized at time of compound addition. DMSO at the same dose was served as solvent control.
(§2) The cell index (CI) was normalized at time of compound addition.

[2] = test system: H1993; experiment: Impedance-based TCRP of Met addicted H1993 cells (xCelligence); type: cell-based, human; conditions: for TCRP (Cell Index response): increasing concentrations; for pIC50: read-out: IC50 (TCRP)
Description: as §1
Cells were treated with ACEA348 (0-10 uM) for 30 min.
as §2
The time-dependent cell response profiles (TCRP) were monitored prior to and after the compound addition using the xCelligence system (ACEA Biosciences/Roche applied sciences).
The Cell index was normalized against the cell index values at a time point just before compound addition. […] EC50 and IC50 of the Met inhibitor can be derived from the CI versus the corresponding log concentration of the inhibitor.

[3] = test system: 10T1/2 tva-H1047R; experiment: Impedance-based TCRP of 10T1/2 tva-H1047R cells expressing human p110α (H1047R); type: cell-based, mouse; conditions: 10T1/2 tva-H1047R; serum starved; from 0 to 10 uM
Description: (§3) Cells were serum starved for 5 hour. The cell index was normalized at time of compound addition. At the indicated time point of treatment, increasing concentrations of PI103 (0-10 uM) was added to the cells and the cell responses were monitored.
as §2
A mouse fibroblast 10T1/2 expressing the cell-surface receptor TVA, which is specific for subgroup-A avian retroviruses was used. […] A549 is a human lung cancer cell line expressing wild-type p110α. T47D and BT20 are human breast cancer cell lines expressing mutant p110α (T47D) and p110α (P539R/H1047R), respectively.
(§4) Then the normal growth medium (10% FBS) was exchanged with medium containing 0% FBS. The cells were incubated for additional 5 hours before compound treatment. A PI3K inhibitor (PI103) at different concentrations in DMSO was added into wells following the incubation period. The cell status was monitored prior to and after the compound addition using xCelligence system (Roche applied sciences). […] Cell index of the cells treated with solvent DMSO control was used as baseline. The Cell index was normalized against the cell index values at a time point just before compound addition.

[4] = test system: 10T1/2 tva; experiment: Impedance-based TCRP of control cell line 10T1/2 tva; parameters: species or system mouse; conditions: 10T1/2 tva control cell line; from 0 to 10 uM
Description: as §3, §2
A mouse fibroblast 10T1/2 expressing the cell-surface receptor TVA, which is specific for subgroup-A avian retroviruses was used.
as §4

[5] = test system: H1975; experiment: EGF-stimulated CI increase in H1975 cells; type: cell-based; conditions: Homo sapiens
[6] = test system: A431; experiment: EGF-stimulated CI increase in A431 cells; type: cell-based; conditions: Homo sapiens
Description: A431 cells were seeded at 20,000 cells per well of 96-well E-plate (Roche/ACEA) with 2% fetal bovine serum. The cells were continuously monitored using xCelligence system (Roche/ACEA). […] The cell index was normalized at time of EGF addition.
To further evaluate the efficacies of these EFGR inhibitors, we tested the inhibitory effect of these inhibitors on the EGF stimulated response using impedance-based technology (FIG. 15). In this experiment, A431 cells were seeded at 20,000 cells per well of 96-well E-plate (Roche/ACEA) with 2% fetal bovine serum. The cells were continuously monitored using xCelligence system (Roche/ACEA). […] The cell index was normalized at time of EGF addition.

[7] = test system: A431; experiment: Impedance-based TCRP of A431 cells, constitutive EGFR activation; type: cell-based; conditions: for pIC50: Homo sapiens, read-out: IC50 (TCRP, constitutive activation)
Description: as §2
A431 cells were seeded into wells of 96 well E-plate devices (Roche applied sciences) with an initial seeding density of 20,000 cells per well and were pre-incubated in incubator with DMEM medium plus 2% FBS over night. […] DMSO at the same dose was served as solvent control. […] The IC50s derived from this experiment evaluate the inhibition of these inhibitors to this basal activation of EGFR (caused by dimerization without EGF stimulation)

[8] = test system: H1975; experiment: Impedance-based TCRP of H1975 cells, constitutive EGFR activation; type: cell-based; conditions: for pIC50: Homo sapiens, read-out: IC50 (TCRP, constitutive activation)
Description: as §2
H1975 cells were seeded at 3,000 cells per well of 96-well E-plate (Roche/ACEA) in RPMI1640 medium with 1% fetal bovine serum. […] The cell index (CI) was normalized at time of compound addition.

[9] = target: T1, PDGFRβ (Rattus norvegicus, UniProt Q05030); experiment: Western analysis of PDGFR signaling pathway in C6 cells; type: cell-based
T1 construct: endogenous in cells; host or cells: C6 rat glioma cells

[10] = test system: HCC827; experiment: Impedance-based TCRP of HCC827 cells, mutant EGFR (Del E746_A750); type: cell-based
Description: as §2
Kinase inhibitors including EGFR inhibitors at different concentrations in DMSO were added into wells following the incubation period. The cell status was monitored prior to and after the compound addition using xCelligence system (Roche applied sciences). The Cell index was normalized against the cell index values at a time point just before compound addition.

[11] = test system: C6; experiment: Impedance-based TCRP of PDGFR addicted C6 glioma cells; type: cell-based, rat; conditions: for TCRP (Cell Index response): increasing concentrations; for pIC50: Rattus norvegicus, read-out: IC50 (TCRP)
Description: as §2
Kinase inhibitors including PDGFR inhibitors at different concentrations in DMSO were added into wells following the incubation period. The cell status was monitored prior to and after the compound addition using xCelligence system (Roche applied sciences). […] The Cell index was normalized against the cell index values at a time point just before compound addition.
IC50 of the PDGFR inhibitor can be derived from the CI versus the corresponding log concentration of the inhibitor.

[12] = test system: SK-MEL-28; experiment: Impedance-based TCRP of SK-MEL-28, b-Raf (V600E) addicted melanoma cells; type: cell-based, human
Description: as §1
(A) The impedance-based time-dependent cellular profiles (TCRPs) of SK-MEL28 in response to b-Raf inhibitor on xCelligence system (Roche/ACEA). […] The cell index (CI) was normalized at time of the compound addition. At the indicated time point of treatment (arrow), increasing concentrations of b-Raf inhibitor (from 0 to 10 uM) were added to the cells and the cell response was monitored. […] (B) EC50 of b-Raf derived from impedance-based TCRP.
as §2
Cell lines. […] The time-dependent cell response profiles (TCRP) were monitored prior to and after the compound addition using the xCelligence system (ACEA Biosciences/Roche applied sciences).
Kinase inhibitors including b-Raf inhibitors at different concentrations in DMSO were added into wells following the incubation period. The cell status was monitored prior to and after the compound addition using xCelligence system (Roche applied sciences). […] The Cell index was normalized against the cell index values at a time point just before compound addition.

[13] = NCI-H1975, H1975, inhibitor 1 hour, then EGF 30 ng/ml, Normalized Cell Index at 30 minutes after EGF, estimated, read-out: IC50 (TCRP, ligand stimulated)
[14] = C6, Long-term (96 hours post compound treatment) CI

T1 sequence (Q05030 32-1097): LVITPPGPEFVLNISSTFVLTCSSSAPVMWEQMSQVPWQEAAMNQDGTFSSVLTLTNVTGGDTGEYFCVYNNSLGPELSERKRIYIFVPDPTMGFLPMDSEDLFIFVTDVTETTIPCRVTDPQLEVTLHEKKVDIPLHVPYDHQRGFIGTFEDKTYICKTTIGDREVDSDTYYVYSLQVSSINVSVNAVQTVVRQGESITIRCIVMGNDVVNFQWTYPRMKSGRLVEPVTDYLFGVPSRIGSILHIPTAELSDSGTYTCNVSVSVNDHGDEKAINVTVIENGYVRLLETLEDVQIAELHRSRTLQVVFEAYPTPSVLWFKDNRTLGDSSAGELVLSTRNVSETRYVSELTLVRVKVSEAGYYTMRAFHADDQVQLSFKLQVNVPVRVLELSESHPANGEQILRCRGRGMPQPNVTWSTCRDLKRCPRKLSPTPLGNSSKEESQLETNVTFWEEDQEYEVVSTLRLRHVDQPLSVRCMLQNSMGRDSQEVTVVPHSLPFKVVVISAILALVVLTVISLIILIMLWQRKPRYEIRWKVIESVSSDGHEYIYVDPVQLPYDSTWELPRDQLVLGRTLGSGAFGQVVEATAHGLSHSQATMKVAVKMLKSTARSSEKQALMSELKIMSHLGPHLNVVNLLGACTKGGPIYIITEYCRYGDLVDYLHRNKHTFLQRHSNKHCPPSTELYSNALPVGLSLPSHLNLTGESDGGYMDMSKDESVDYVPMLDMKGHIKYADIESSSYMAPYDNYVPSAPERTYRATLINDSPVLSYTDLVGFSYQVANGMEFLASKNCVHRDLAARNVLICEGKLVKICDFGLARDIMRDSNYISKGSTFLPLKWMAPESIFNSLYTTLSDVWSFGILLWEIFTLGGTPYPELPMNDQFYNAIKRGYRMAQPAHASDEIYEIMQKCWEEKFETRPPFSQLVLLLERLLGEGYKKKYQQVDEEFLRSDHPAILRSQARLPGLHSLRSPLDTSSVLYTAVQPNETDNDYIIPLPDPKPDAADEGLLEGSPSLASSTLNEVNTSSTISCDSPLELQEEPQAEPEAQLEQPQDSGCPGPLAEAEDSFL

| Compound | TCRP (Cell Index response) ([2]; H1993) | TCRP (Cell Index response) [3] | TCRP (Cell Index response) [4] | also measured |
| --- | --- | --- | --- | --- |
| COc1cc2ncnc(Nc3cccc(Cl)c3)c2cc1OC [AG1478] |  |  |  | TCRP (Cell Index response) [1]: None trigged a TCRP representative to that trigger by ALK inhibitors |
| O=c1[nH]c2ccccc2n1C1CCN(Cc2ccc(-c3nc4cc5[nH]cnc5cc4nc3-c3ccccc3)cc2)CC1 [AKT inhibitor VIII] | None of these inhibitors induced a TCRP similar to PF2341006 | cell index decreases in both the control cell line and H1047R cell line | cell index decreases in both the control cell line and H1047R cell line |  |
| Cn1c(=O)n(-c2ccc(C(C)(C)C#N)cc2)c2c3cc(-c4cnc5ccccc5c4)ccc3ncc21 [BEZ235] | None of these inhibitors induced a TCRP similar to PF2341006 | triggered 10T1/2-tva-H1047R specific cell index drop | not present in the control cell line 10T1/2-tva |  |
| CN(C)C/C=C/C(=O)Nc1cc2c(Nc3ccc(F)c(Cl)c3)ncnc2cc1O[C@H]1CCOC1 [BIBW2992] |  |  |  | pIC50 ([5]; NCI-H1975, read-out: IC50 (TCRP, ligand stimulated)): ~6.70 |
| CN([C@@H](Cc1ccc(OS(=O)(=O)c2cccc3cnccc23)cc1)C(=O)N1CCN(c2ccccc2)CC1)S(=O)(=O)c1cccc2cnccc12 [CaM kinase inhibitor] |  | did not introduce significant cell index changes in either cell line | did not introduce significant cell index changes in either cell line |  |
| C=CC(=O)Nc1cc2c(Nc3ccc(F)c(Cl)c3)ncnc2cc1OCCCN1CCOCC1 [Canertinib] |  |  |  | pIC50 [5, 13]: ~6.82; pIC50 ([6]; A-431, read-out: IC50 (TCRP, ligand stimulated)): > 7.57; TCRP (Cell Index response) ([7]; A431, from 0 to 20 uM): dose-dependent short-term and long-term decrease in Cell Index; pIC50 ([7]; A-431, 72 h): 6.45; TCRP (Cell Index response) ([8]; H1975, from 0 to 20 uM): dose-dependent short-term and long-term decrease in Cell Index; pIC50 ([8]; NCI-H1975, 72 h): 6.40 |
| O=c1cc(CN2CCOCC2)occ1OCCCCCSc1ccnc2cc(C(F)(F)F)ccc12 [EHT1864] | None of these inhibitors induced a TCRP similar to PF2341006 |  |  |  |
| CC1=C(C(=O)Nc2cc3cn[nH]c3cc2F)C(c2ccc(C(F)(F)F)cc2)CC(=O)N1 (stereo not shown) [GSK429286] | None of these inhibitors induced a TCRP similar to PF2341006 |  |  |  |
| CNC(=O)c1c(F)cccc1Nc1nc(Nc2cc3c(cc2OC)CCN3C(=O)CN(C)C)nc2[nH]ccc12 [GSK1838705A] |  |  |  | pIC50 [1]: 6.86 |
| O=C1Nc2ccc(I)cc2/C1=C/c1cc(Br)c(O)c(Br)c1 [GW5074] | None of these inhibitors induced a TCRP similar to PF2341006 | cell index decreases in both the control cell line and H1047R cell line | cell index decreases in both the control cell line and H1047R cell line |  |
| Cc1ccc(NC(=O)c2ccc(CN3CCN(C)CC3)cc2)cc1Nc1nccc(-c2cccnc2)n1 [Imatinib] |  |  |  | phospho-MAPK (Western) ([9]; downstream target of PDGFR): down-regulated; PDGFRβ autophosphorylation (Western) ([9]; phospho-PDGFRβ (Y1021)): effectively inhibited |
| CCCCCCOC(=O)[C@]1(O)C[C@@H]2O[C@@]1(C)n1c3ccccc3c3c4c(c5c6ccccc6n2c5c31)C(=O)NC4 [KT5720] |  | did not introduce significant cell index changes in either cell line | did not introduce significant cell index changes in either cell line |  |
| COC(=O)[C@@]1(OC)C[C@H]2O[C@]1(C)n1c3ccccc3c3c4c(c5c6ccccc6n2c5c31)C(=O)N(C)C4 [KT5823] |  | did not introduce significant cell index changes in either cell line | did not introduce significant cell index changes in either cell line |  |
| COc1ccc(-c2ccc3c(N4CCOCC4)nc(N4C[C@@H](C)O[C@@H](C)C4)nc3n2)cc1CO [KU0063794] | None of these inhibitors induced a TCRP similar to PF2341006 | triggered 10T1/2-tva-H1047R specific cell index drop | not present in the control cell line 10T1/2-tva |  |
| CS(=O)(=O)CCNCc1ccc(-c2ccc3ncnc(Nc4ccc(OCc5cccc(F)c5)c(Cl)c4)c3c2)o1 [Lapatinib] |  |  |  | pIC50 ([10]; Homo sapiens, HCC827, 96 h, read-out: IC50 (TCRP)): 7.41 |
| Cc1ccc(NC(=O)c2ccc(CN3CCN(C)CC3)cc2)cc1Nc1nc(-c2cccnc2)cs1 [Masitinib] | None of these inhibitors induced a TCRP similar to PF2341006 |  |  | TCRP (Cell Index response) ([11]; C6): dose-dependent short-term increase (to a various degree) and long-term decrease in Cell Index; pIC50 [11, 14]: 6.31; TCRP (Cell Index response, cell growth) ([10]; HCC827, increasing concentrations): did not inhibit HCC827 cell growth |
| COc1cc(N2CCC(N3CCN(C)CC3)CC2)ccc1Nc1ncc(Cl)c(Nc2ccccc2S(=O)(=O)C(C)C)n1 [NVP-TAE684] |  |  |  | pIC50 ([1]; Homo sapiens): 7.98 |
| COc1cccc(-c2cc(=O)c3ccccc3o2)c1N [PD98059] | None of these inhibitors induced a TCRP similar to PF2341006 | did not introduce significant cell index changes in either cell line | did not introduce significant cell index changes in either cell line |  |
| C[C@@H](Oc1cc(-c2cnn(C3CCNCC3)c2)cnc1N)c1c(Cl)ccc(F)c1Cl [PF02341066, Crizotinib] |  |  |  | pIC50 ([2]; Homo sapiens, NCI-H1993, 200 h): 8.49; pEC50 ([2]; Homo sapiens, NCI-H1993, H1993, short-term (10 hours post compound treatment) CI): 8.70; pIC50 [2]: 8.73 |
| Oc1ccc(-c2nc(-c3ccncc3)c(-c3ccc(F)cc3)[nH]2)cc1 [SB202190] | None of these inhibitors induced a TCRP similar to PF2341006 | did not introduce significant cell index changes in either cell line | did not introduce significant cell index changes in either cell line |  |
| C[S+]([O-])c1ccc(-c2nc(-c3ccncc3)c(-c3ccc(F)cc3)[nH]2)cc1 (stereo not shown) [SB203580] | None of these inhibitors induced a TCRP similar to PF2341006 |  |  |  |
| CN[C@@H]1C[C@H]2O[C@@](C)([C@@H]1OC)n1c3ccccc3c3c4c(c5c6ccccc6n2c5c31)C(=O)NC4 [Staurosporine] |  | cell index decreases in both the control cell line and H1047R cell line | cell index decreases in both the control cell line and H1047R cell line |  |
| CCN(CC)CCNC(=O)c1c(C)[nH]c(/C=C2\C(=O)Nc3ccc(F)cc32)c1C [Sunitinib] |  |  |  | pIC50 [11, 14]: 7.37 |
| CO[C@H]1C[C@@H]2CC[C@@H](C)[C@@](O)(O2)C(=O)C(=O)N2CCCC[C@H]2C(=O)O[C@H]([C@H](C)C[C@@H]2CC[C@@H](OC(=O)C(C)(CO)CO)[C@H](OC)C2)CC(=O)[C@H](C)/C=C(\C)[C@@H](O)[C@@H](OC)C(=O)[C@H](C)C[C@H](C)/C=C/C=C/C=C/1C [Temsirolimus] |  | triggered 10T1/2-tva-H1047R specific cell index drop | not present in the control cell line 10T1/2-tva |  |
| N#CC(=C(/N)Sc1ccccc1N)/C(C#N)=C(\N)Sc1ccccc1N [U0126] | None of these inhibitors induced a TCRP similar to PF2341006 | did not introduce significant cell index changes in either cell line | did not introduce significant cell index changes in either cell line |  |
| C=CC(=O)Nc1cccc(Oc2nc(Nc3ccc(N4CCN(C)CC4)cc3OC)ncc2Cl)c1 [WZ4002] |  |  |  | pIC50 [5, 13]: ~5.90; pIC50 ([6]; A-431, A431, inhibitor 1 hour, then EGF 30 ng/ml, Normalized Cell Index at 30 minutes after EGF, estimated, read-out: IC50 (TCRP, ligand stimulated)): ~5.70; pIC50 ([7]; A-431, A431 (wild-type EGFR), Long-term (72 hours post compound treatment) CI): 5.36; pIC50 ([8]; NCI-H1975, H1975 (mutant L858R/T790M EGFR), 72 hours post compound treatment): 6.25 |
| CNC(=O)c1cc(Oc2ccc(NC(=O)Nc3ccc(Cl)c(C(F)(F)F)c3)cc2)ccn1 [sorafenib] |  |  | cell index decreases in both the control cell line and H1047R cell line | TCRP (Cell Index response) [1]: None trigged a TCRP representative to that trigger by ALK inhibitors; TCRP (Cell Index response) ([11]; C6): dose-dependent short-term increase (to a various degree) and long-term decrease in Cell Index; pIC50 ([11]; C6, 96 h): 6.72; TCRP (Cell Index response) [12]: did not affect CI changes that are significantly different from the negative control |
| CC[C@]1(O)C[C@H]2CN(CCc3c([nH]c4ccccc34)[C@@](C(=O)OC)(c3cc4c(cc3OC)N(C=O)[C@H]3[C@@](O)(C(=O)OC)[C@H](OC(C)=O)[C@]5(CC)C=CCN6CC[C@]43[C@@H]65)C2)C1 [vincristine] |  | cell index decreases in both the control cell line and H1047R cell line | cell index decreases in both the control cell line and H1047R cell line |  |
| AKT inhibitor IV | None of these inhibitors induced a TCRP similar to PF2341006 |  |  |  |
